In US20050074810A1, “Method for non-invasilvely determining the relative levels of two biological substances” (priority 2001, published 2005):
Read-outs that look alike come from different tables or passages of the source. One block for each compound: values may come before it.

Columns and labels:
[1] = In vitro reverse iontophoretic extraction of mannitol and sodium (Example 3, first experiment); settings: pig, pH 7.4
Protocol: The anode was placed in the sub-dermal, “donor” chamber, which contained a physiological pH 7.4 buffer (25 mM Tris/TrisHCl+133 mM NaCl) to which the analyte mannitol was added.
In a first experiment, mannitol concentration was 5 mM for the first three hours of experiment and was then increased to 10 mM for a subsequent period of three hours.
(§1) To facilitate the analytical chemistry, the donor solutions were spiked with ^14C-labeled mannitol.
The cathodal (collection) chamber, which contacted the outer surface of the skin contained a 25 mM Tris/TrisHCl buffer at pH 7.4.
(§2) During the first 3-hour period, the entire content of the cathode solution was withdrawn every 60 minutes and the chamber was refilled with fresh buffer.
During the second 3-hour period, the 5 mM mannitol donor solution was replaced with 10 mM mannitol, and the cathodal chamber was then sampled every 30 minutes.

[2] = In vitro reverse iontophoretic extraction of mannitol and sodium with varied sodium level (Example 4); settings: pig, pH 7.4
Protocol: The anode was placed in the sub-dermal, “donor” chamber, which contained a physiological pH 7.4 buffer (25 mM Tris/TrisHCl+4 mM KCl).
Both the concentration of the analyte of interest and the internal standard were modified during the experiment.
as §1
(§3) The cathodal (collection) chamber, which contacted the outer surface of the skin, contained a 25 mM Tris/TrisHCl buffer at pH 7.4.
as §2
During the final 1-hour period, the donor solution was replaced with 5 mM mannitol/ 133 mM NaCl, and the cathodal chamber was then sampled every 30 minutes.

[3] = In vitro reverse iontophoretic extraction of mannitol and sodium (Example 3, second experiment); settings: pig; for Extracted (mannitol/Na^+) flux (×10^3) ratio / Mannitol flux: pH 7.4
Protocol: In a second experiment, performed under identical conditions to the first (see FIG. 11), mannitol concentration was 5 mM for the first three hours of experiment, it was then reduced to 3 mM for a subsequent period of one hour and then increased to 10 mM for a subsequent period of one hour.
as §2
During the second 1-hour period, the 5 mM mannitol donor solution was replaced with 3 mM mannitol, and the cathodal chamber was then sampled every 30 minutes.
During the third 1-hour period, the 3 mM mannitol donor solution was replaced with 10 mM mannitol, and the cathodal chamber was then sampled every 30 minutes.

[4] = In vitro reverse iontophoretic extraction of glucose, mannitol and sodium (Example 6); format: in vitro ADME, pig
Protocol: To facilitate the analytical chemistry, the donor solutions were spiked with tritiated glucose and ^14C-labeled mannitol.
as §3
The experimental design was identical to that in FIG. 11, with the exception that both tritiated glucose and ^14C-labeled mannitol were present in the ‘donor’ anode chamber.
During this period, the entire content of the cathode solution was withdrawn every 60 minutes and the chamber was refilled with fresh buffer.

[5] = Protocol: Every hour, the entire content of the cathode solution was withdrawn and the chamber refilled with fresh buffer.
Three replicates were performed for each lithium concentration.

Extracted (mannitol/Na^+) flux (×10^3) ratio ([1]; 60 min, 5 mM): 1.7 ± 0.8 ×10^3 | Mannitol flux ([1]; 60 min, 5 mM): 13.3 ± 7.6 nmol · h^−1 · cm^−2 | Extracted (mannitol/Na^+) flux (×10^3) ratio ([1]; 120 min, 5 mM): 2.2 ± 0.3 ×10^3 | Mannitol flux ([1]; 120 min, 5 mM): 21.0 ± 4.7 nmol · h^−1 · cm^−2 | Extracted (mannitol/Na^+) flux (×10^3) ratio ([1]; 180 min, 5 mM): 2.5 ± 0.3 ×10^3 | Mannitol flux ([1]; 180 min, 5 mM): 25.2 ± 4.3 nmol · h^−1 · cm^−2 | Extracted (mannitol/Na^+) flux (×10^3) ratio ([1]; 210 min, 10 mM): 5.0 ± 0.2 ×10^3 | Mannitol flux ([1]; 210 min, 10 mM): 52.2 ± 4.4 nmol · h^−1 · cm^−2 | Extracted (mannitol/Na^+) flux (×10^3) ratio ([1]; 240 min, 10 mM): 5.1 ± 0.5 ×10^3 | Mannitol flux ([1]; 240 min, 10 mM): 53.2 ± 7.7 nmol · h^−1 · cm^−2 | Extracted (mannitol/Na^+) flux (×10^3) ratio ([1]; 270 min, 10 mM): 5.2 ± 0.5 ×10^3 | Mannitol flux ([1]; 270 min, 10 mM): 54.1 ± 6.8 nmol · h^−1 · cm^−2 | Extracted (mannitol/Na^+) flux (×10^3) ratio ([1]; 300 min, 10 mM): 5.5 ± 0.3 ×10^3 | Mannitol flux ([1]; 300 min, 10 mM): 58.1 ± 4.5 nmol · h^−1 · cm^−2 | Extracted (mannitol/Na^+) flux (×10^3) ratio ([1]; 330 min, 10 mM): 5.7 ± 0.4 ×10^3 | Mannitol flux ([1]; 330 min, 10 mM): 60.9 ± 6.8 nmol · h^−1 · cm^−2 | Extracted (mannitol/Na^+) flux (×10^3) ratio ([1]; 360 min, 10 mM): 6.0 ± 0.3 ×10^3 | Mannitol flux ([1]; 360 min, 10 mM): 63.2 ± 6.2 nmol · h^−1 · cm^−2 | Extracted (mannitol/Na^+) flux (×10^3) ratio ([2]; 60 min, 5 mM): 1.2 ± 0.2 ×10^3 | Mannitol flux ([2]; 60 min, 5 mM): 9.7 ± 1.5 nmol · h^−1 · cm^−2 | Extracted (mannitol/Na^+) flux (×10^3) ratio ([2]; 120 min, 5 mM): 2.1 ± 0.1 ×10^3 | Mannitol flux ([2]; 120 min, 5 mM): 22.0 ± 1.6 nmol · h^−1 · cm^−2 | Extracted (mannitol/Na^+) flux (×10^3) ratio ([2]; 180 min, 5 mM): 2.6 ± 0.1 ×10^3 | Mannitol flux ([2]; 180 min, 5 mM): 28.8 ± 1.3 nmol · h^−1 · cm^−2 | Extracted (mannitol/Na^+) flux (×10^3) ratio ([2]; 270 min, 3 mM): 1.6 ± 0.1 ×10^3 | Mannitol flux ([2]; 270 min, 3 mM): 15.9 ± 0.7 nmol · h^−1 · cm^−2 | Extracted (mannitol/Na^+) flux (×10^3) ratio ([2]; 300 min, 3 mM): 1.4 ± 0.1 ×10^3 | Mannitol flux ([2]; 300 min, 3 mM): 15.3 ± 0.7 nmol · h^−1 · cm^−2 | Extracted (mannitol/Na^+) flux (×10^3) ratio ([2]; 330 min, 5 mM): 2.7 ± 0.1 ×10^3 | Mannitol flux ([2]; 330 min, 5 mM): 29.0 ± 0.8 nmol · h^−1 · cm^−2 | Extracted (mannitol/Na^+) flux (×10^3) ratio ([2]; 360 min, 5 mM): 2.6 ± 0.1 ×10^3 | Mannitol flux ([2]; 360 min, 5 mM): 29.3 ± 0.6 nmol · h^−1 · cm^−2 | K (Qmann/QNa^+=K.[mann]/[Na^+], slope of FIG. 15b) [3]: 0.07 | Extracted (mannitol/Na^+) flux (×10^3) ratio ([3]; 60 min, 5 mM): 1.52 ± 0.4 ×10^3 | Mannitol flux ([3]; 60 min, 5 mM): 13.5 ± 4.1 nmol · h^−1 · cm^−2 | Extracted (mannitol/Na^+) flux (×10^3) ratio ([3]; 120 min, 5 mM): 2.5 ± 0.3 ×10^3 | Mannitol flux ([3]; 120 min, 5 mM): 25.8 ± 4.8 nmol · h^−1 · cm^−2 | Extracted (mannitol/Na^+) flux (×10^3) ratio ([3]; 180 min, 5 mM): 2.7 ± 0.3 ×10^3 | Mannitol flux ([3]; 180 min, 5 mM): 27.8 ± 4.4 nmol · h^−1 · cm^−2 | Extracted (mannitol/Na^+) flux (×10^3) ratio ([3]; 210 min, 3 mM): 1.5 ± 0.2 ×10^3 | Mannitol flux ([3]; 210 min, 3 mM): 16.6 ± 3.2 nmol · h^−1 · cm^−2 | Extracted (mannitol/Na^+) flux (×10^3) ratio ([3]; 240 min, 3 mM): 1.5 ± 0.5 ×10^3 | Mannitol flux ([3]; 240 min, 3 mM): 14.1 ± 2.8 nmol · h^−1 · cm^−2 | Extracted (mannitol/Na^+) flux (×10^3) ratio ([3]; 270 min, 10 mM): 5.2 ± 0.5 ×10^3 | Mannitol flux ([3]; 270 min, 10 mM): 49.6 ± 8.4 nmol · h^−1 · cm^−2 | Extracted (mannitol/Na^+) flux (×10^3) ratio ([3]; 300 min, 10 mM): 5.2 ± 0.7 ×10^3 | Mannitol flux ([3]; 300 min, 10 mM): 48.1 ± 8.7 nmol · h^−1 · cm^−2 | Extracted flux ratio (10^3×) relative to Na^+ ([4]; Experiment A: subdermal glucose 3 mM, mannitol 7 mM, 60 min): 2.01 ± 0.33 10^3× | Extracted flux ratio (10^3×) relative to Na^+ ([4]; Experiment A: subdermal glucose 3 mM, mannitol 7 mM, 120 min): 3.21 ± 0.21 10^3× | Extracted flux ratio (10^3×) relative to Na^+ ([4]; Experiment A: subdermal glucose 3 mM, mannitol 7 mM, 180 min): 3.64 ± 0.31 10^3× | Extracted flux ratio (10^3×) relative to Na^+ ([4]; Experiment A: subdermal glucose 3 mM, mannitol 7 mM, 240 min): 3.98 ± 0.24 10^3× | Extracted flux ratio (10^3×) relative to Na^+ ([4]; Experiment A: subdermal glucose 3 mM, mannitol 7 mM, 300 min): 4.29 ± 0.40 10^3× | Extracted flux ratio (10^3×) relative to Na^+ ([4]; Experiment A: subdermal glucose 3 mM, mannitol 7 mM, 360 min): 4.65 ± 0.26 10^3× | Extracted flux ratio (10^3×) relative to Na^+ ([4]; Experiment B: subdermal glucose 5 mM, mannitol 5 mM, 60 min): 1.29 ± 0.58 10^3× | Extracted flux ratio (10^3×) relative to Na^+ ([4]; Experiment B: subdermal glucose 5 mM, mannitol 5 mM, 120 min): 2.13 ± 0.47 10^3× | Extracted flux ratio (10^3×) relative to Na^+ ([4]; Experiment B: subdermal glucose 5 mM, mannitol 5 mM, 180 min): 2.53 ± 0.41 10^3× | Extracted flux ratio (10^3×) relative to Na^+ ([4]; Experiment B: subdermal glucose 5 mM, mannitol 5 mM, 240 min): 2.73 ± 0.38 10^3× | Extracted flux ratio (10^3×) relative to Na^+ ([4]; Experiment B: subdermal glucose 5 mM, mannitol 5 mM, 300 min): 2.98 ± 0.41 10^3× | Extracted flux ratio (10^3×) relative to Na^+ ([4]; Experiment B: subdermal glucose 5 mM, mannitol 5 mM, 360 min): 3.15 ± 0.30 10^3× | Extracted flux ratio (10^3×) relative to Na^+ ([4]; Experiment C: subdermal glucose 7 mM, mannitol 3 mM, 60 min): 0.86 ± 0.45 10^3× | Extracted flux ratio (10^3×) relative to Na^+ ([4]; Experiment C: subdermal glucose 7 mM, mannitol 3 mM, 120 min): 1.38 ± 0.46 10^3× | Extracted flux ratio (10^3×) relative to Na^+ ([4]; Experiment C: subdermal glucose 7 mM, mannitol 3 mM, 180 min): 1.62 ± 0.44 10^3× | Extracted flux ratio (10^3×) relative to Na^+ ([4]; Experiment C: subdermal glucose 7 mM, mannitol 3 mM, 240 min): 1.71 ± 0.39 10^3× | Extracted flux ratio (10^3×) relative to Na^+ ([4]; Experiment C: subdermal glucose 7 mM, mannitol 3 mM, 300 min): 1.83 ± 0.40 10^3× | Extracted flux ratio (10^3×) relative to Na^+ ([4]; Experiment C: subdermal glucose 7 mM, mannitol 3 mM, 360 min): 1.94 ± 0.36 10^3× | K (analyte/Na^+ extraction ratio vs sub-dermal concentration ratio, slope of FIG. 22b) ([4]; iontophoresis of 6 hours at 0.5 mA/cm^2): 0.078 | K′ (analyte/Na^+ extraction ratio vs analyte sub-dermal concentration, slope of FIG. 22a) ([4]; iontophoresis of 6 hours at 0.5 mA/cm^2, Na^+ fixed 133 mM): 0.586×10^−3
Compound: OC[C@@H](O)[C@@H](O)[C@H](O)[C@H](O)CO [Mannitol, mannitol]

Compound: [Li] [lithium]
(10^3×) Extracted (lithium/Na^+) flux ratio ([5]; (10^3×) subdermal [lithium]/[Na^+] ratio 3.4, 60 min): 0.71 ± 0.28 ×10^3 | (10^3×) Extracted (lithium/Na^+) flux ratio ([5]; (10^3×) subdermal [lithium]/[Na^+] ratio 3.4, 120 min): 1.38 ± 0.19 ×10^3 | (10^3×) Extracted (lithium/Na^+) flux ratio ([5]; (10^3×) subdermal [lithium]/[Na^+] ratio 3.4, 180 min): 1.54 ± 0.20 ×10^3 | (10^3×) Extracted (lithium/Na^+) flux ratio ([5]; (10^3×) subdermal [lithium]/[Na^+] ratio 3.4, 240 min): 1.80 ± 0.03 ×10^3 | (10^3×) Extracted (lithium/Na^+) flux ratio ([5]; (10^3×) subdermal [lithium]/[Na^+] ratio 3.4, 300 min): 1.62 ± 0.03 ×10^3 | (10^3×) Extracted (lithium/Na^+) flux ratio ([5]; (10^3×) subdermal [lithium]/[Na^+] ratio 6.5, 60 min): 1.48 ± 0.41 ×10^3 | (10^3×) Extracted (lithium/Na^+) flux ratio ([5]; (10^3×) subdermal [lithium]/[Na^+] ratio 6.5, 120 min): 2.65 ± 0.55 ×10^3 | (10^3×) Extracted (lithium/Na^+) flux ratio ([5]; (10^3×) subdermal [lithium]/[Na^+] ratio 6.5, 180 min): 3.13 ± 0.78 ×10^3 | (10^3×) Extracted (lithium/Na^+) flux ratio ([5]; (10^3×) subdermal [lithium]/[Na^+] ratio 6.5, 240 min): 2.79 ± 0.35 ×10^3 | (10^3×) Extracted (lithium/Na^+) flux ratio ([5]; (10^3×) subdermal [lithium]/[Na^+] ratio 6.5, 300 min): 3.13 ± 0.51 ×10^3 | (10^3×) Extracted (lithium/Na^+) flux ratio ([5]; (10^3×) subdermal [lithium]/[Na^+] ratio 10.3, 60 min): 2.28 ± 0.43 ×10^3 | (10^3×) Extracted (lithium/Na^+) flux ratio ([5]; (10^3×) subdermal [lithium]/[Na^+] ratio 10.3, 120 min): 4.45 ± 0.64 ×10^3 | (10^3×) Extracted (lithium/Na^+) flux ratio ([5]; (10^3×) subdermal [lithium]/[Na^+] ratio 10.3, 180 min): 5.25 ± 0.48 ×10^3 | (10^3×) Extracted (lithium/Na^+) flux ratio ([5]; (10^3×) subdermal [lithium]/[Na^+] ratio 10.3, 240 min): 5.64 ± 0.52 ×10^3 | (10^3×) Extracted (lithium/Na^+) flux ratio ([5]; (10^3×) subdermal [lithium]/[Na^+] ratio 10.3, 300 min): 5.45 ± 0.36 ×10^3 | K′ (QLi/QNa=K′.[Li], slope of FIG. 25a) ([5]; pig, pH 7.4): 4.18×10^−3 | K (QLi/QNa=K.[Li]/[Na], slope of FIG. 25b) ([5]; short (5-hour) period of iontophoresis at 0.5 mA/cm^2): 0.56
